Measurements taken from US20250127162A1, “METHODS AND COMPOSITIONS FOR CONTROLLING PESTS IN RICE” (Globachem NV, priority 2022, published 2025).

Tested on: Chilo suppressalis
Assay: Rice field trials, Chilo suppressalis insect damage / white heads (Example 1, Trials 3-4, Thailand)
Format: in vivo
Settings: for percent reduction in insect damage relative to untreated control: UTC given as 0
Experimental: All applications were made with an EC formulation containing 650 g/L of pelargonic acid (e.g., 685 g/L of 95% purity pelargonic acid), an anionic emulsifier and a branched fatty acid ester solvent. […] Trials 1 4 assessing the use of pelargonic acid for controlling Chilo suppressalis in rice were conducted in Spain and Thailand. Application A was made to the crops at the beginning of infestations; for these trials, Stage BBCH 59; Application B was made 14 days after Application A. Trial 3 was conducted in Thailand using a water volume of 500 L/ha of water per application unless otherwise indicated. Insect Damage ([…] %), Insect Damage (Number) and Phytotoxicity were assessed at various treatment evaluation intervals. Population levels were recorded by counting number of rice plants per hill, number of white head (damage from rice stem borer) followed by calculation of % insect damage. Trial 4 was conducted in Thailand using a water volume of 500 L/ha of water per application unless otherwise indicated. Insect Damage ([…] %), Insect Damage (Number) and Phytotoxicity were assessed at various treatment evaluation intervals. Population levels were recorded by counting number of rice plants per hill, number of white head (damage from rice stem borer) followed by calculation of % insect damage.

[1] = Trial 3, 21 DAB, water volume 500 L/ha, rate in treatment name, Prevathon 0.5 L/ha, listed as PA 2600 g/ha
[2] = Trial 4, 0 DAA, water volume 200 L/ha
[3] = Trial 4, 0 DAB, water volume 200 L/ha
[4] = Trial 4, 0 DAB, water volume 500 L/ha, rate in treatment name, Prevathon 0.5 L/ha, listed as PA 585 g/ha
[5] = Trial 4, 0 DAB, water volume 500 L/ha, rate in treatment name, Prevathon 0.5 L/ha, listed as PA 975 g/ha
[6] = Trial 4, 0 DAB, water volume 500 L/ha, rate in treatment name, Prevathon 0.5 L/ha, listed as PA 1300 g/ha
[7] = Trial 4, 0 DAB, water volume 500 L/ha, rate in treatment name, Prevathon 0.5 L/ha, listed as PA 2600 g/ha
[8] = Trial 4, 7 DAA, water volume 200 L/ha
[9] = Trial 4, 7 DAA, water volume 500 L/ha, rate in treatment name, Prevathon 0.5 L/ha, listed as PA 585 g/ha
[10] = Trial 4, 7 DAA, water volume 500 L/ha, rate in treatment name, Prevathon 0.5 L/ha, listed as PA 975 g/ha
[11] = Trial 4, 7 DAA, water volume 500 L/ha, rate in treatment name, Prevathon 0.5 L/ha, listed as PA 1300 g/ha
[12] = Trial 4, 7 DAA, water volume 500 L/ha, rate in treatment name, Prevathon 0.5 L/ha, listed as PA 2600 g/ha
[13] = Trial 4, 7 DAB, water volume 200 L/ha
[14] = Trial 4, 7 DAB, water volume 500 L/ha, rate in treatment name, Prevathon 0.5 L/ha, listed as PA 585 g/ha
[15] = Trial 4, 7 DAB, water volume 500 L/ha, rate in treatment name, Prevathon 0.5 L/ha, listed as PA 975 g/ha
[16] = Trial 4, 7 DAB, water volume 500 L/ha, rate in treatment name, Prevathon 0.5 L/ha, listed as PA 1300 g/ha
[17] = Trial 4, 7 DAB, water volume 500 L/ha, rate in treatment name, Prevathon 0.5 L/ha, listed as PA 2600 g/ha
[18] = Trial 4, 10 DAA, water volume 200 L/ha
[19] = Trial 4, 10 DAA, water volume 500 L/ha, rate in treatment name, Prevathon 0.5 L/ha, listed as PA 585 g/ha
[20] = Trial 4, 10 DAA, water volume 500 L/ha, rate in treatment name, Prevathon 0.5 L/ha, listed as PA 975 g/ha
[21] = Trial 4, 10 DAA, water volume 500 L/ha, rate in treatment name, Prevathon 0.5 L/ha, listed as PA 1300 g/ha
[22] = Trial 4, 10 DAA, water volume 500 L/ha, rate in treatment name, Prevathon 0.5 L/ha, listed as PA 2600 g/ha
[23] = Trial 4, 10 DAB, water volume 200 L/ha
[24] = Trial 4, 10 DAB, water volume 500 L/ha, rate in treatment name, Prevathon 0.5 L/ha, listed as PA 585 g/ha
[25] = Trial 4, 10 DAB, water volume 500 L/ha, rate in treatment name, Prevathon 0.5 L/ha, listed as PA 975 g/ha
[26] = Trial 4, 10 DAB, water volume 500 L/ha, rate in treatment name, Prevathon 0.5 L/ha, listed as PA 1300 g/ha
[27] = Trial 4, 10 DAB, water volume 500 L/ha, rate in treatment name, Prevathon 0.5 L/ha, listed as PA 2600 g/ha
[28] = Trial 4, 14 DAB, water volume 200 L/ha
[29] = Trial 4, 14 DAB, water volume 500 L/ha, rate in treatment name, Prevathon 0.5 L/ha, listed as PA 585 g/ha
[30] = Trial 4, 14 DAB, water volume 500 L/ha, rate in treatment name, Prevathon 0.5 L/ha, listed as PA 975 g/ha
[31] = Trial 4, 14 DAB, water volume 500 L/ha, rate in treatment name, Prevathon 0.5 L/ha, listed as PA 1300 g/ha
[32] = Trial 4, 14 DAB, water volume 500 L/ha, rate in treatment name, Prevathon 0.5 L/ha, listed as PA 2600 g/ha
[33] = Trial 4, 21 DAB, water volume 200 L/ha
[34] = Trial 4, 21 DAB, water volume 500 L/ha, rate in treatment name, Prevathon 0.5 L/ha, listed as PA 585 g/ha
[35] = Trial 4, 21 DAB, water volume 500 L/ha, rate in treatment name, Prevathon 0.5 L/ha, listed as PA 975 g/ha
[36] = Trial 4, 21 DAB, water volume 500 L/ha, rate in treatment name, Prevathon 0.5 L/ha, listed as PA 1300 g/ha
[37] = Trial 4, 21 DAB, water volume 500 L/ha, rate in treatment name, Prevathon 0.5 L/ha, listed as PA 2600 g/ha

CCCCCCCCC(=O)O [PA 650 g/ha, pelargonic acid]
DAMINS % (insect damage, % white heads) [1]: 0.19% | DAMINS (number): mean number of insect damage (white head symptoms) [1]: 0.75 | DAMINS (number): mean number of insect damage (white head symptoms) [2]: 5.5 | percent reduction in insect damage relative to untreated control [2]: 0% | percent reduction in insect damage relative to untreated control (Trial 4, 0 DAA, water volume 500 L/ha, rate in treatment name, Prevathon 0.5 L/ha): 0% | DAMINS (number): mean number of insect damage (white head symptoms) (Trial 4, 0 DAA, water volume 500 L/ha, rate in treatment name, Prevathon 0.5 L/ha, listed as PA 585 g/ha): 4.57 | DAMINS (number): mean number of insect damage (white head symptoms) (Trial 4, 0 DAA, water volume 500 L/ha, rate in treatment name, Prevathon 0.5 L/ha, listed as PA 975 g/ha): 5.19 | DAMINS (number): mean number of insect damage (white head symptoms) (Trial 4, 0 DAA, water volume 500 L/ha, rate in treatment name, Prevathon 0.5 L/ha, listed as PA 1300 g/ha): 5.23 | DAMINS (number): mean number of insect damage (white head symptoms) (Trial 4, 0 DAA, water volume 500 L/ha, rate in treatment name, Prevathon 0.5 L/ha, listed as PA 2600 g/ha): 5.07 | DAMINS (number): mean number of insect damage (white head symptoms) [3]: 1.36 | percent reduction in insect damage relative to untreated control [3]: 71.53% | percent reduction in insect damage relative to untreated control [4]: 22.87% | percent reduction in insect damage relative to untreated control [5]: 28.25% | percent reduction in insect damage relative to untreated control [6]: 38.54% | percent reduction in insect damage relative to untreated control [7]: 67.46% | DAMINS (number): mean number of insect damage (white head symptoms) [4]: 3.57 | DAMINS (number): mean number of insect damage (white head symptoms) [5]: 3.34 | DAMINS (number): mean number of insect damage (white head symptoms) [6]: 2.88 | DAMINS (number): mean number of insect damage (white head symptoms) [7]: 1.49 | DAMINS (number): mean number of insect damage (white head symptoms) [8]: 2.94 | percent reduction in insect damage relative to untreated control [8]: 62.66% | percent reduction in insect damage relative to untreated control [9]: 15.96% | percent reduction in insect damage relative to untreated control [10]: 22.58% | percent reduction in insect damage relative to untreated control [11]: 44.41% | percent reduction in insect damage relative to untreated control [12]: 51.10% | DAMINS (number): mean number of insect damage (white head symptoms) [9]: 6.67 | DAMINS (number): mean number of insect damage (white head symptoms) [10]: 6.09 | DAMINS (number): mean number of insect damage (white head symptoms) [11]: 4.38 | DAMINS (number): mean number of insect damage (white head symptoms) [12]: 3.87 | DAMINS (number): mean number of insect damage (white head symptoms) [13]: 0.76 | percent reduction in insect damage relative to untreated control [13]: 80.70% | percent reduction in insect damage relative to untreated control [14]: 27.16% | percent reduction in insect damage relative to untreated control [15]: 36.66% | percent reduction in insect damage relative to untreated control [16]: 49.64% | percent reduction in insect damage relative to untreated control [17]: 66.66% | DAMINS (number): mean number of insect damage (white head symptoms) [14]: 2.86 | DAMINS (number): mean number of insect damage (white head symptoms) [15]: 2.52 | DAMINS (number): mean number of insect damage (white head symptoms) [16]: 1.93 | DAMINS (number): mean number of insect damage (white head symptoms) [17]: 1.32 | DAMINS (number): mean number of insect damage (white head symptoms) [18]: 1.76 | percent reduction in insect damage relative to untreated control [18]: 80.59% | percent reduction in insect damage relative to untreated control [19]: 40.99% | percent reduction in insect damage relative to untreated control [20]: 44.26% | percent reduction in insect damage relative to untreated control [21]: 56.19% | percent reduction in insect damage relative to untreated control [22]: 72.62% | DAMINS (number): mean number of insect damage (white head symptoms) [19]: 5.33 | DAMINS (number): mean number of insect damage (white head symptoms) [20]: 4.99 | DAMINS (number): mean number of insect damage (white head symptoms) [21]: 3.94 | DAMINS (number): mean number of insect damage (white head symptoms) [22]: 2.48 | DAMINS (number): mean number of insect damage (white head symptoms) [23]: 1.06 | percent reduction in insect damage relative to untreated control [23]: 77.49% | percent reduction in insect damage relative to untreated control [24]: 22.53% | percent reduction in insect damage relative to untreated control [25]: 51.13% | percent reduction in insect damage relative to untreated control [26]: 61.44% | percent reduction in insect damage relative to untreated control [27]: 74.82% | DAMINS (number): mean number of insect damage (white head symptoms) [24]: 3.71 | DAMINS (number): mean number of insect damage (white head symptoms) [25]: 2.35 | DAMINS (number): mean number of insect damage (white head symptoms) [26]: 1.86 | DAMINS (number): mean number of insect damage (white head symptoms) [27]: 1.19 | DAMINS (number): mean number of insect damage (white head symptoms) [28]: 0.9 | percent reduction in insect damage relative to untreated control [28]: 80.46% | percent reduction in insect damage relative to untreated control [29]: 19.69% | percent reduction in insect damage relative to untreated control [30]: 40.42% | percent reduction in insect damage relative to untreated control [31]: 46.02% | percent reduction in insect damage relative to untreated control [32]: 76.77% | DAMINS (number): mean number of insect damage (white head symptoms) [29]: 3.78 | DAMINS (number): mean number of insect damage (white head symptoms) [30]: 2.74 | DAMINS (number): mean number of insect damage (white head symptoms) [31]: 2.54 | DAMINS (number): mean number of insect damage (white head symptoms) [32]: 1.1 | DAMINS (number): mean number of insect damage (white head symptoms) [33]: 1.24 | percent reduction in insect damage relative to untreated control [33]: 74.20% | percent reduction in insect damage relative to untreated control [34]: 29.88% | percent reduction in insect damage relative to untreated control [35]: 37.44% | percent reduction in insect damage relative to untreated control [36]: 52.85% | percent reduction in insect damage relative to untreated control [37]: 71.12% | DAMINS (number): mean number of insect damage (white head symptoms) [34]: 3.3 | DAMINS (number): mean number of insect damage (white head symptoms) [35]: 2.96 | DAMINS (number): mean number of insect damage (white head symptoms) [36]: 2.26 | DAMINS (number): mean number of insect damage (white head symptoms) [37]: 1.38
